This assay concerns the target Sphingosine 1-phosphate receptor 5 (Homo sapiens) (UniProt Q9H228). Put plainly: S1P5 receptor agonists, human, late-stage follow-up, counter-screen for S1P4 agonist project, cell-based, fluorescence, set 2 (AID 504867). The following applies: S1P5 agonist cell assay, fluorescence read-out. On the technique in general: A counterscreen serves to expose hits that act by an unwanted route or on another target.

Chain of Sphingosine 1-phosphate receptor 5 (Homo sapiens) (Q9H228 whole entry, looked up): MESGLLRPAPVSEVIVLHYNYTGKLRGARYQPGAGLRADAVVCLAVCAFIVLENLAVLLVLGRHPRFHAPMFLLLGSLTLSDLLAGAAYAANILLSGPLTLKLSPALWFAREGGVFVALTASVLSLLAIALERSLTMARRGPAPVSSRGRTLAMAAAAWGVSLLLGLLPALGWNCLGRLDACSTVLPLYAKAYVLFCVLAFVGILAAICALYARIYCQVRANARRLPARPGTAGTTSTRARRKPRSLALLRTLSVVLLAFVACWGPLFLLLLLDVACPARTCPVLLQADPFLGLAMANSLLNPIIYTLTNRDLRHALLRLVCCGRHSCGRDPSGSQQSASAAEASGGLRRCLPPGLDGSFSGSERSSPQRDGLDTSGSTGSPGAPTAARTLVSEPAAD

A word on the EC50: it is the concentration at which the effect is half-maximal. Take `COCCN=C1S/C(=C\c2cc(C)n(-c3ccc(F)cc3F)c2C)C(=O)N1C`: the concentration giving a half-maximal response (EC50) is 2100 nM.

Source of the values: PubChem BioAssay AID504867 (The Scripps Research Institute Molecular Screening Center, 2011).
